Laboratory results as given in patent US11878973B2, “Bicyclic compounds and their uses” (NOVARTIS AG, priority 2021, dated 2024).
Where two headings read alike, the source gives them in different places.

Key:
[1] = target: WRN helicase (Homo sapiens (Human), UniProt Q14191); test: In vitro enzymatic activity assay on WRN helicase (DNA dependent ATPase assay, ADP-Glo); assay type: biochemical; settings: geometric means of at least 2 determinations; read-out: WRN ATPase Activity (IC50)
Outline: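 DNA-dependent ATPase activity was measured by ADP-Glo luminescent ADP detection after a 30-min room-temperature reaction. The reaction contained 10 nM WRN (residues N517-P1238), 0.2 nM FLAP26 and 300 µM ATP at pH 7.5 with 2 mM MgCl2. Compounds were tested as 10-point half-log series in duplicate; IC50 values are geometric means from at least two independent experiments.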

[2] = system: SW48 cells; test: Proliferation assay SW48 (CellTiterGlo, 96 hours)
[3] = system: DLD1-WRN-KO cells; test: Proliferation assay DLD1-WRN-KO (CellTiterGlo, 96 hours; off-target effects); settings: read-out: Proliferation Assay DLD1-WRN-KO (GI50)
Procedure: The WRN-knockdown insensitive colon carcinoma cell line DLD-1 (RRID: CVCL_0248) was obtained from the Korean Cell Line Bank (KCLB), and used to generate a derivative in which the endogenous WRN gene copies were knocked out by CRISPR-mediated editing using standard CRISPR methods. The resulting cell line, DLD1-WRN—KO, was used to assess potential off-target compound effects.
All cells were maintained at 37° C. in a humidified 5% CO2 incubator.
For data analysis, the assay background signal that was determined in wells containing medium, but no cells, was subtracted from all other data points prior to further calculations. The extent of growth inhibition and potential cell kill was assessed by comparing the ATP levels (measured using CellTiterGlo, Promega) in compound-treated cells with those present at the time of compound addition. […] 100%, 0% and −100% signify absence of growth inhibition, growth stasis, and complete cell kill, respectively. Compound concentrations leading to half-maximal growth inhibition (G150) and residual cell viability at the highest tested compound concentration (Data (cmax), expressed in percent) were routinely calculated. Data analysis can also be carried out using commercially available software designed to derive IC50 values using 4-parameter fits (e.g. GraphPad Prism, XL fit). The reported GI50 values are the geometrical means of at least 2 independent replicates.

[4] = Homo sapiens, SW48, read-out: Proliferation Assay SW48 (GI50)

Sequence of WRN helicase (Q14191 517-1238): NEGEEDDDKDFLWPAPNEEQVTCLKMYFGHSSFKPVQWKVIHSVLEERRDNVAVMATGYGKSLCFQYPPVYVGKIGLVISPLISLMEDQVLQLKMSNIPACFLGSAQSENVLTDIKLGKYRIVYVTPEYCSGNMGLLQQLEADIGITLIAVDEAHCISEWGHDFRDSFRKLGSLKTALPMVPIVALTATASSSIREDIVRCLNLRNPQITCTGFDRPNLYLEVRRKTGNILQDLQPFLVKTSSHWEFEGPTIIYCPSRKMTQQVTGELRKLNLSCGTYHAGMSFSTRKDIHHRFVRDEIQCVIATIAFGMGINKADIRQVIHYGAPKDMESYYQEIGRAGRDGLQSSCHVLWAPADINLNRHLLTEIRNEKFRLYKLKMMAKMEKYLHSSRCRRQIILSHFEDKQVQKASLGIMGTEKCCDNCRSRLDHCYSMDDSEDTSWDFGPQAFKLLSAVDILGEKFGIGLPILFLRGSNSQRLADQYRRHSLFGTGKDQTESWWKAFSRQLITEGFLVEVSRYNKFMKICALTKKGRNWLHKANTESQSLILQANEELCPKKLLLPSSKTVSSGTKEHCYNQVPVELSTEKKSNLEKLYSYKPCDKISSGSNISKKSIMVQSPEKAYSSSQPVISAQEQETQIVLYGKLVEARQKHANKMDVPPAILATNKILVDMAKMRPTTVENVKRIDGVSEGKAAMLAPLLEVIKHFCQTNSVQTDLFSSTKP

## CCc1c(N2CCN(C(=O)c3ncccc3O)CC2)c(=O)n2nc(C3=CCCCO3)nc2n1CC(=O)Nc1ccc(C(F)(F)F)cc1C [Example 83, 2-(2-(3,4-dihydro-2H-pyran-6-yl)-5-ethyl-6-(4-(3-hydroxypicolinoyl)piperazin-1-yl)-7-oxo-[1,2,4]triazolo[1,5-a]pyrimidin-4(7H)-yl)-N-(2-methyl-4-(trifluoromethyl)phenyl)acetamide]
[1]
  IC50: 90 nM
[2]; [4]
  GI50: 60 nM
[3]; Homo sapiens
  GI50: > 10000 nM

## CCc1c(N2CCN(C(=O)c3ncccc3O)CC2)c(=O)n2nc(N3CCC[C@@H](F)C3)nc2n1CC(=O)Nc1ccc(C(F)(F)F)cc1Cl (single isomer, unassigned) [Example 15b, ((R)—N-(2-chloro-4-(trifluoromethyl)phenyl)-2-(5-ethyl-2-(3-fluoropiperidin-1-yl)-6-(4-(3-hydroxypicolinoyl)piperazin-1-yl)-7-oxo-[1,2,4]triazolo[1,5-a]pyrimidin-4(7H)-yl)acetamide) or ((S)—N-(2-chloro-4-(trifluoromethyl)phenyl)-2-(5-ethyl-2-(3-fluoropiperidin-1-yl)-6-(4-(3-hydroxypicolinoyl)piperazin-1-yl)-7-oxo-[1,2,4]triazolo[1,5-a]pyrimidin-4(7H)-yl)acetamide)]
[1]
  IC50: 120 nM
[2]; read-out: Proliferation Assay SW48 (GI50), SW48 cell line, geometric means of at least 2 determinations
  GI50: 360 nM
[3]; DLD1-WRN-KO cell line, geometric means of at least 2 determinations
  GI50: > 10000 nM

## CCc1c(N2CCN(C(=O)c3ncnc(C)c3O)[C@H](C)[C@H]2C)c(=O)n2nc(C3=CCOCC3)nc2n1CC(=O)Nc1ccc(C(F)(F)F)cc1Cl [Example 119, N-(2-chloro-4-(trifluoromethyl)phenyl)-2-(2-(3,6-dihydro-2H-pyran-4-yl)-5-ethyl-6-((2R,3R)-4-(5-hydroxy-6-methylpyrimidine-4-carbonyl)-2,3-dimethylpiperazin-1-yl)-7-oxo-[1,2,4]triazolo[1,5-a]pyrimidin-4(7H)-yl)acetamide]
[1]
  IC50: 160 nM
[2]; [4]
  GI50: 50 nM
[3]; Homo sapiens
  GI50: > 10000 nM

## CCc1c(N2CCN(C(=O)c3ncccc3O)CC2)c(=O)n2nc(C3=CCC(F)CN3)nc2n1CC(=O)Nc1ccc(C(F)(F)F)cc1C (racemic) [Example 111, rac-2-(5-ethyl-2-(5-fluoro-1,4,5,6-tetrahydropyridin-2-yl)-6-(4-(3-hydroxypicolinoyl)piperazin-1-yl)-7-oxo-[1,2,4]triazolo[1,5-a]pyrimidin-4(7H)-yl)-N-(2-methyl-4-(trifluoromethyl)phenyl)acetamide]
[1]
  IC50: 330 nM
[2]; [4]
  GI50: 1120 nM
[3]; Homo sapiens
  GI50: > 10000 nM

## CCc1c(N2CCN(C(=O)c3ncnc(C)c3O)CC2)c(=O)n2nc(C3=CCOCC3)nc2n1CC(=O)Nc1ccc(C(F)(F)F)nc1Cl [Example 47, N-(2-chloro-6-(trifluoromethyl)pyridin-3-yl)-2-(2-(3,6-dihydro-2H-pyran-4-yl)-5-ethyl-6-(4-(5-hydroxy-6-methylpyrimidine-4-carbonyl)piperazin-1-yl)-7-oxo-[1,2,4]triazolo[1,5-a]pyrimidin-4(7H)-yl)acetamide]
[1]
  IC50: 140 nM
[2]; [4]
  GI50: 170 nM
[3]; Homo sapiens
  GI50: > 10000 nM

## CCc1c(N2CCN(C(=O)c3ncnc(C)c3O)CC2)c(=O)n2nc(C3=CCOCC3)nc2n1CC(=O)Nc1ccc(Br)cc1Cl [Example 106, N-(4-bromo-2-chlorophenyl)-2-(2-(3,6-dihydro-2H-pyran-4-yl)-5-ethyl-6-(4-(5-hydroxy-6-methylpyrimidine-4-carbonyl)piperazin-1-yl)-7-oxo-[1,2,4]triazolo[1,5-a]pyrimidin-4(7H)-yl)acetamide]
[1]
  IC50: 60 nM
[2]; [4]
  GI50: 110 nM
[3]; Homo sapiens
  GI50: > 10000 nM

## CCc1c(N2CCN(C(=O)c3ncccc3O)CC2)c(=O)n2nc(C3=CCCCN3)nc2n1CC(=O)Nc1ccc(C(F)(F)F)cc1C [Example 110, 2-(5-ethyl-6-(4-(3-hydroxypicolinoyl)piperazin-1-yl)-7-oxo-2-(1,4,5,6-tetrahydropyridin-2-yl)-[1,2,4]triazolo[1,5-a]pyrimidin-4(7H)-yl)-N-(2-methyl-4-(trifluoromethyl)phenyl)acetamide]
[1]
  IC50: 360 nM
[2]; [4]
  GI50: 1210 nM
[3]; Homo sapiens
  GI50: > 10000 nM

## CCc1c(N2CCN(C(=O)c3nccc(C)c3O)CC2)c(=O)n2nc(C3=CCOCC3)nc2n1CC(=O)Nc1ccc(C(F)(F)F)cc1C [Example 66, 2-(2-(3,6-dihydro-2H-pyran-4-yl)-5-ethyl-6-(4-(3-hydroxy-4-methylpicolinoyl)piperazin-1-yl)-7-oxo-[1,2,4]triazolo[1,5-a]pyrimidin-4(7H)-yl)-N-(2-methyl-4-(trifluoromethyl)phenyl)acetamide]
[1]
  IC50: 40 nM
[2]; [4]
  GI50: 90 nM
[3]; Homo sapiens
  GI50: > 10000 nM

## CCc1c(N2CCN(C(=O)c3ncccc3O)CC2)c(=O)n2nc(C3=CCOCC3)nc2n1CC(=O)Nc1cc(Cl)c(C(F)(F)F)nc1C [Example 102, N-(5-chloro-2-methyl-6-(trifluoromethyl)pyridin-3-yl)-2-(2-(3,6-dihydro-2H-pyran-4-yl)-5-ethyl-6-(4-(3-hydroxypicolinoyl)piperazin-1-yl)-7-oxo-[1,2,4]triazolo[1,5-a]pyrimidin-4(7H)-yl)acetamide]
[1]
  IC50: 90 nM
[2]; [4]
  GI50: 170 nM
[3]; Homo sapiens
  GI50: > 10000 nM

## CCc1c(N2CCN(C(=O)c3ncnc(C)c3O)[C@@H]3CC[C@H]32)c(=O)n2nc(C3=CCOCC3)nc2n1CC(=O)Nc1ccc(C(F)(F)F)cc1Cl [Example 124, N-(2-chloro-4-(trifluoromethyl)phenyl)-2-(2-(3,6-dihydro-2H-pyran-4-yl)-5-ethyl-6-((1R,6R)-5-(5-hydroxy-6-methylpyrimidine-4-carbonyl)-2,5-diazabicyclo[4.2.0]octan-2-yl)-7-oxo-[1,2,4]triazolo[1,5-a]pyrimidin-4(7H)-yl)acetamide]
[1]
  IC50: 360 nM
[2]; [4]
  GI50: 390 nM
[3]; Homo sapiens
  GI50: > 10000 nM

## CCc1c(N2CCN(C(=O)c3nccc(Cl)c3O)CC2)c(=O)n2nc(C3=CCOCC3)nc2n1CC(=O)Nc1ccc(C(F)(F)F)c(F)c1C [Example 37, 2-(6-(4-(4-chloro-3-hydroxypicolinoyl)piperazin-1-yl)-2-(3,6-dihydro-2H-pyran-4-yl)-5-ethyl-7-oxo-[1,2,4]triazolo[1,5-a]pyrimidin-4(7H)-yl)-N-(3-fluoro-2-methyl-4-(trifluoromethyl)phenyl)acetamide]
[1]
  IC50: 20 nM
[2]; [4]
  GI50: 30 nM
[3]; Homo sapiens
  GI50: > 10000 nM

## CCc1c(N2CCN(C(=O)c3ncccc3O)CC2)c(=O)n2nc(-c3ccc(C)nc3)nc2n1CC(=O)Nc1ccc(C(F)(F)F)cc1C [Example 77, 2-(5-ethyl-6-(4-(3-hydroxypicolinoyl)piperazin-1-yl)-2-(6-methylpyridin-3-yl)-7-oxo-[1,2,4]triazolo[1,5-a]pyrimidin-4(7H)-yl)-N-(2-methyl-4-(trifluoromethyl)phenyl)acetamide]
[1]
  IC50: 210 nM
[2]; [4]
  GI50: 380 nM
[3]; Homo sapiens
  GI50: > 10000 nM

## CCc1c(N2CCN(C(=O)c3ncnc(C)c3O)CC2)c(=O)n2nc(C3=CCN(C(=O)OC(C)(C)C)CC3)nc2n1CC(=O)Nc1ccc(C(F)(F)F)cc1C [Example 130, tert-butyl 4-(5-ethyl-6-(4-(5-hydroxy-6-methylpyrimidine-4-carbonyl)piperazin-1-yl)-4-(2-((2-methyl-4-(trifluoromethyl)phenyl)amino)-2-oxoethyl)-7-oxo-4,7-dihydro-[1,2,4]triazolo[1,5-a]pyrimidin-2-yl)-3,6-dihydropyridine-1 (2H)-carboxylate]
[1]
  IC50: 100 nM
[2]; [4]
  GI50: 50 nM
[3]; Homo sapiens
  GI50: > 10000 nM

## CCc1c(N2CCN(C(=O)c3ncnc(C)c3O)CC2)c(=O)n2nc(C3=CCOCC3)nc2n1CC(=O)Nc1cc(F)c(C(F)F)cc1C [Example 53, N-(4-(difluoromethyl)-5-fluoro-2-methylphenyl)-2-(2-(3,6-dihydro-2H-pyran-4-yl)-5-ethyl-6-(4-(5-hydroxy-6-methylpyrimidine-4-carbonyl)piperazin-1-yl)-7-oxo-[1,2,4]triazolo[1,5-a]pyrimidin-4(7H)-yl)acetamide]
[1]
  IC50: 120 nM
[2]; [4]
  GI50: 140 nM
[3]; Homo sapiens
  GI50: > 10000 nM

## CCc1c(N2CCN(C(=O)c3ncnc(C)c3O)[C@H](C)C2)c(=O)n2nc(C3=CCOCC3)nc2n1CC(=O)Nc1ccc(C(F)(F)F)cc1Cl [Example 86, (R)—N-(2-chloro-4-(trifluoromethyl)phenyl)-2-(2-(3,6-dihydro-2H-pyran-4-yl)-5-ethyl-6-(4-(5-hydroxy-6-methylpyrimidine-4-carbonyl)-3-methylpiperazin-1-yl)-7-oxo-[1,2,4]triazolo[1,5-a]pyrimidin-4(7H)-yl)acetamide]
[1]
  IC50: 90 nM
[2]; [4]
  GI50: 80 nM
[3]; Homo sapiens
  GI50: > 10000 nM

## CCc1c(N2CCN(C(=O)c3nc(C)ccc3O)CC2)c(=O)n2nc(C3=CCOCC3)nc2n1CC(=O)Nc1ccc(C(F)(F)F)cc1 [Example 74, 2-(2-(3,6-dihydro-2H-pyran-4-yl)-5-ethyl-6-(4-(3-hydroxy-6-methylpicolinoyl)piperazin-1-yl)-7-oxo-[1,2,4]triazolo[1,5-a]pyrimidin-4(7H)-yl)-N-(4-(trifluoromethyl)phenyl)acetamide]
[1]
  IC50: 50 nM
[2]; [4]
  GI50: 70 nM
[3]; Homo sapiens
  GI50: > 10000 nM

## CCc1c(N2CCN(C(=O)c3ncccc3O)CC2)c(=O)n2nc(N3CCCC3)nc2n1CC(=O)Nc1ccc(C(F)(F)F)nc1Cl [Example 18, N-(2-chloro-6-(trifluoromethyl)pyridin-3-yl)-2-(5-ethyl-6-(4-(3-hydroxypicolinoyl)piperazin-1-yl)-7-oxo-2-(pyrrolidin-1-yl)-[1,2,4]triazolo[1,5-a]pyrimidin-4(7H)-yl)acetamide]
[1]
  IC50: 180 nM
[2]; [4]
  GI50: 260 nM
[3]; Homo sapiens
  GI50: > 10000 nM
